Tests used:
[1] = test system: fibroblasts (PHF) co-cultured with human neuroblastoma tumor cells (KELLY); assay: Marker expression (IHC) in PHF co-cultured with KELLY tumor cells; assay type: cell-based; conditions: PHF co-cultured with KELLY + SP;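 note: Co-cultures grown on healthy-donor human blood plasma, run in six replicates, value is percentage of fibroblasts positive for each marker, compared with fibroblasts cultured alone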
Description: (§1) All cultures were maintained 48 hours, following which the same cells were included in paraffin blocks for subsequent analysis of the expression of different markers by immunohistochemistry (see Example 1). […] All experiments were carried out sixfold. Analyzed markers in fibroblast cells (stromal cells) were: TGF-α, TGF-β1, TGF-β2, TGF-β3, SPARC, MMP-3, MMP-7, MMP-9, MMP-11, MMP-13 and MMP-14.

[2] = test system: fibroblasts (PHF) co-cultivated with tumor cell lymphoblastic leukemia B (SDI); assay: Marker expression (IHC) in PHF co-cultured with SDI tumor cells; assay type: cell-based, human; conditions: PHF co-cultivated with SDI + SP
Description: as §1

mononuclear cells = assay: Marker expression (immunohistochemistry) in mononuclear blood cells with SP alone or with NK1 antagonists; assay type: cell-based, human; conditions: SP 1 μM; 48 h
Excerpt: Briefly, heparinized blood from healthy donors was centrifuged so as to separate the various components thereof. Red blood cells remained at the bottom of the tube. Above them was a small white layer composed of the white blood cells and above, on top of the tube, the blood plasma. The layer of white cells was distributed in a culture plate of 24 wells by adding in each the same concentration of blood plasma from the same donor, supplemented with 1% antibiotic-antimycotic (Invitrogen). In each well, approximately 1000 cells (PHF) skin from the dermis were further added, obtained as previously described in Example 2. […] After 48 hours of incubation, cells were collected and embedded in paraffin for expression analysis by immunohistochemical techniques (as described in Example 1).
The expression of TGF molecular markers (anti-TGF 2, SAB4502956) and NF-kB (anti-NF-kB, SAB4501992) using specific antibodies against them were analyzed. All antibodies used were rabbit polyclonal antibodies obtained from Sigma Aldrich and were used at a concentration of 1/1000. All experiments were carried out sixfold.

[3] = test system: cell line C-12210 (microvascular endothelial cells); assay: Proliferation of C-12210 endothelial cell cultures (MTS); assay type: cell-based, human;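 note: MTS colorimetric read-out in culture wells, absorbance at 492 nm with 690 nm reference, MTS added 90 min before reading, blank without cells, compared with untreated control cells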
Description: Then, to analyze the effect on the proliferation of cultured cells of the cell line C-12210, treatment was carried out for these crops with increasing concentrations of different non-peptide NK1. […] The cell number was quantified using a Coulter counter. C-12210 cells were grown in appropriate medium (PromoCell Growth Medium; Promocell GmbH, Germany) according to the manufacturers instructions in the presence of increasing concentrations of various non-peptide antagonists of NK1 receptors. In tumor cell culture plates included a blank sample (no cells) and a control sample (containing 10^4 cells/ml). To staining for the proliferation assays, 20 μl MTS was added to each the wells of cell culture plates 90 minutes prior to reading in a spectrophotometer samples multiscanner (TECAN Spectra Classic, Barcelona, Spain) at 492 nm (test wavelength) and 690 nm (reference wavelength). Different doses of each NK1 non-peptide were assayed in duplicate and each experiment was performed in sextuplicate.

[4] = test system: fibroblasts (PHF) co-cultured with human melanoma tumor cells (MEL-HO1); assay: Marker expression (IHC) in PHF co-cultured with MEL-HO1 tumor cells; assay type: cell-based; conditions: PHF co-cultured with MEL-HO1 + SP;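 note: values are the percentage of fibroblasts positive for each marker, with cultures grown in fresh healthy-donor blood plasma and each experiment run six times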
Description: as §1

[5] = test system: fibroblasts (PHF) co-cultured with tumor cells of human endometrial carcinoma (AN3-CA); assay: Marker expression (IHC) in PHF co-cultured with AN3-CA tumor cells; assay type: cell-based; conditions: co-culture with AN3-CA; SP 1 μM; 48 h;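 note: cultured in fresh healthy-donor blood plasma with added antibiotic-antimycotic, run in six replicates, values give percent of fibroblasts positive for each marker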
Description: as §1

[6] = test system: fibroblasts (PHF) co-cultured with human choriocarcinoma tumor cells (AC-1M32); assay: Marker expression (IHC) in PHF co-cultured with AC-1M32 tumor cells; assay type: cell-based; conditions: co-culture with AC-1M32; SP 1 μM; 48 h;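 note: Read-out is the percentage of PHF fibroblasts positive for each marker, with cells grown in fresh healthy-donor blood plasma, six replicates, reference being fibroblasts cultured alone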
Description: as §1

[7] = test system: fibroblasts (PHF) co-cultivated with tumor cell carcinoma of urinary bladder (5637); assay: Marker expression (IHC) in PHF co-cultured with 5637 tumor cells; assay type: cell-based, human; conditions: co-culture with 5637; SP 1 μM; 48 h
Description: as §1

[8] = test system: fibroblasts (PHF) co-cultured with tumor cells, thyroid carcinoma (reference A-427); assay: Marker expression (IHC) in PHF co-cultured with thyroid carcinoma tumor cells; assay type: cell-based, human; conditions: co-culture with thyroid carcinoma cells; SP 1 μM; 48 h;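 note: grown in fresh plasma from a healthy human donor, read-out is percent of fibroblasts positive for each marker, compared with fibroblasts cultured alone, run in six replicates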
Description: as §1

[9] = test system: fibroblasts (PHF) co-cultured with tumor cells, thyroid carcinoma; assay: as above; assay type: cell-based, human; conditions: co-culture with thyroid carcinoma cells; SP 1 μM; 48 h
Description: as §1

Structure (SMILES): CSCC[C@H](NC(=O)[C@H](CC(C)C)NC(=O)CNC(=O)[C@H](Cc1ccccc1)NC(=O)[C@H](Cc1ccccc1)NC(=O)[C@H](CCC(N)=O)NC(=O)[C@H](CCC(N)=O)NC(=O)[C@@H]1CCCN1C(=O)[C@H](CCCCN)NC(=O)[C@@H]1CCCN1C(=O)[C@@H](N)CCCNC(=N)N)C(N)=O [SP]
- cells expressing MMP-3 [1]: 45.4 ± 4.7%
- cells expressing MMP-7 [1]: 57.4 ± 3.8%
- cells expressing MMP-9 [1]: 51.2 ± 2.4%
- cells expressing MMP-11 [1]: 29.4 ± 4.8%
- cells expressing MMP-13 [1]: 44.3 ± 4.5%
- cells expressing MMP-14 [1]: 51.2 ± 4.2%
- cells expressing SPARC [1]: 46.5 ± 4.2%
- cells expressing TGF-α [1]: 42.4 ± 3.1%
- cells expressing TGF-β1 [1]: 36.5 ± 2.1%
- cells expressing TGF-β2 [1]: 42.2 ± 2.2%
- cells expressing TGF-β3 [1]: 43.4 ± 2.3%
- cells expressing MMP-3 [2]: 53.4 ± 5.7%
- cells expressing MMP-7 [2]: 59.1 ± 4.8%
- cells expressing MMP-9 [2]: 59.3 ± 3.4%
- cells expressing MMP-11 [2]: 47.4 ± 4.8%
- cells expressing MMP-13 [2]: 49.5 ± 6.5%
- cells expressing MMP-14 [2]: 53.9 ± 5.5%
- cells expressing SPARC [2]: 56 ± 6.2%
- cells expressing TGF-α [2]: 41.4 ± 3.1%
- cells expressing TGF-β1 [2]: 42.5 ± 4.2%
- cells expressing TGF-β2 [2]: 50.5 ± 1.1%
- cells expressing TGF-β3 [2]: 51.4 ± 5.5%
- mononuclear cells expressing NF-kB (mononuclear cells): 25.7 ± 1.4%
- mononuclear cells expressing TGF-β (mononuclear cells): 16.4 ± 1.2%
- proliferation, percentage of control ± SD ([3]; SP 10 nM, exposure 0 h): 102.2 ± 1%
- proliferation, percentage of control ± SD ([3]; SP 10 nM, exposure 24 h): 119.1 ± 1.8%
- proliferation, percentage of control ± SD ([3]; SP 10 nM, exposure 48 h): 139.3 ± 3.1%
- proliferation, percentage of control ± SD ([3]; SP 10 nM, exposure 72 h): 134.3 ± 2.8%
- proliferation, percentage of control ± SD ([3]; SP 100 nM, exposure 0 h): 109.5 ± 2.9%
- proliferation, percentage of control ± SD ([3]; SP 100 nM, exposure 24 h): 17 ± 2.7%
- proliferation, percentage of control ± SD ([3]; SP 100 nM, exposure 48 h): 21 ± 2.6%
- proliferation, percentage of control ± SD ([3]; SP 100 nM, exposure 72 h): 32.4 ± 3.3%
- proliferation, percentage of control ± SD ([3]; SP 500 nM, exposure 0 h): 128.9 ± 2.7%
- proliferation, percentage of control ± SD ([3]; SP 500 nM, exposure 24 h): 137 ± 3.8%
- proliferation, percentage of control ± SD ([3]; SP 500 nM, exposure 48 h): 146 ± 4.7%
- proliferation, percentage of control ± SD ([3]; SP 500 nM, exposure 72 h): 158.5 ± 4.6%
- proliferation, percentage of control ± SD ([3]; SP 1 μM, exposure 0 h): 175.3 ± 5.2%
- proliferation, percentage of control ± SD ([3]; SP 1 μM, exposure 24 h): 186 ± 6.3%
- proliferation, percentage of control ± SD ([3]; SP 1 μM, exposure 48 h): 194.4 ± 6.5%
- proliferation, percentage of control ± SD ([3]; SP 1 μM, exposure 72 h): 199 ± 5.5%
- proliferation, percentage of control ± SD ([3]; SP 50 μM, exposure 0 h): 218 ± 3.5%
- proliferation, percentage of control ± SD ([3]; SP 50 μM, exposure 24 h): 242 ± 6.7%
- proliferation, percentage of control ± SD ([3]; SP 50 μM, exposure 48 h): 247 ± 6.5%
- proliferation, percentage of control ± SD ([3]; SP 50 μM, exposure 72 h): 259.4 ± 4.1%
- proliferation, percentage of control ± SD ([3]; SP 100 μM, exposure 0 h): 236.4 ± 5.6%
- proliferation, percentage of control ± SD ([3]; SP 100 μM, exposure 24 h): 258 ± 4.5%
- proliferation, percentage of control ± SD ([3]; SP 100 μM, exposure 48 h): 259.5 ± 4.6%
- proliferation, percentage of control ± SD ([3]; SP 100 μM, exposure 72 h): 266.9 ± 6.8%
- effect on growth/proliferation of C-12210 cells (in words) ([3]; increasing concentrations): stimulating effect on the growth of human endothelial cells
- cells expressing MMP-3 [4]: 44.5 ± 4.7%
- cells expressing MMP-7 [4]: 55.5 ± 3.8%
- cells expressing MMP-9 [4]: 53.3 ± 2.4%
- cells expressing MMP-11 [4]: 24.4 ± 3.8%
- cells expressing MMP-13 [4]: 46.1 ± 3.5%
- cells expressing MMP-14 [4]: 46.2 ± 3.5%
- cells expressing SPARC [4]: 44.5 ± 1.4%
- cells expressing TGF-α [4]: 42.4 ± 3.2%
- cells expressing TGF-β1 [4]: 42.5 ± 2.1%
- cells expressing TGF-β2 [4]: 44.5 ± 1.9%
- cells expressing TGF-β3 [4]: 43.5 ± 2.6%
- PHF cells expressing MMP-3 [5]: 44.2 ± 2.7%
- PHF cells expressing MMP-7 [5]: 54.4 ± 2.1%
- PHF cells expressing MMP-9 [5]: 54.3 ± 1.6%
- PHF cells expressing MMP-11 [5]: 29.4 ± 1.8%
- PHF cells expressing MMP-13 [5]: 49 ± 3.4%
- PHF cells expressing MMP-14 [5]: 45.2 ± 3.5%
- PHF cells expressing SPARC [5]: 49 ± 1.5%
- PHF cells expressing TGF-α [5]: 42.4 ± 2%
- PHF cells expressing TGF-β1 [5]: 33.3 ± 3.1%
- PHF cells expressing TGF-β2 [5]: 43.5 ± 1.1%
- PHF cells expressing TGF-β3 [5]: 44 ± 1.56%
- PHF cells expressing MMP-3 [6]: 45.4 ± 2.7%
- PHF cells expressing MMP-7 [6]: 57.1 ± 3.8%
- PHF cells expressing MMP-9 [6]: 56.3 ± 2.4%
- PHF cells expressing MMP-11 [6]: 28.4 ± 2.8%
- PHF cells expressing MMP-13 [6]: 47 ± 3.7%
- PHF cells expressing MMP-14 [6]: 51.2 ± 4.5%
- PHF cells expressing SPARC [6]: 46 ± 3.1%
- PHF cells expressing TGF-α [6]: 41.4 ± 1.1%
- PHF cells expressing TGF-β1 [6]: 36.5 ± 2.1%
- PHF cells expressing TGF-β2 [6]: 53.5 ± 3.1%
- PHF cells expressing TGF-β3 [6]: 46 ± 3%
- PHF cells expressing MMP-3 [7]: 44.5 ± 2.7%
- PHF cells expressing MMP-7 [7]: 55.4 ± 3.8%
- PHF cells expressing MMP-9 [7]: 53.3 ± 4.4%
- PHF cells expressing MMP-11 [7]: 26.5 ± 1.8%
- PHF cells expressing MMP-13 [7]: 44.5 ± 2.5%
- PHF cells expressing MMP-14 [7]: 47.1 ± 3.5%
- PHF cells expressing SPARC [7]: 47.4 ± 2.2%
- PHF cells expressing TGF-α [7]: 42.4 ± 1.1%
- PHF cells expressing TGF-β1 [7]: 43.6 ± 1.1%
- PHF cells expressing TGF-β2 [7]: 44.3 ± 1.1%
- PHF cells expressing TGF-β3 [7]: 42.3 ± 1.2%
- PHF cells expressing MMP-3 [8]: 43.1 ± 1.7%
- PHF cells expressing MMP-7 [8]: 56.4 ± 3.8%
- PHF cells expressing MMP-9 [8]: 51.4 ± 3.4%
- PHF cells expressing MMP-13 [8]: 4.25 ± 3.6%
- PHF cells expressing MMP-14 [8]: 49.1 ± 3.6%
- PHF cells expressing SPARC [8]: 48.1 ± 1.3%
- PHF cells expressing TGF-α [8]: 42.4 ± 1.2%
- PHF cells expressing TGF-β1 [8]: 33.7 ± 1.3%
- PHF cells expressing TGF-β2 [8]: 42.6 ± 1.1%
- PHF cells expressing TGF-β3 [8]: 42.1 ± 1.5%
- PHF cells expressing MMP-11 [9]: 29.4 ± 3.8%
